Results taken from patent publication US20130210752A1, “USING A NOVEL HIGH-THROUGHPUT YEAST CELL-BASED SCREENING PLATFORM TO IDENTIFY HMG-COA REDUCTASE INHIBITORS FROM NATURAL PRODUCTS AND THE USES OF SUCH INHIBITORS THEREOF” (HONG KONG BAPTIST UNIVERSITY, priority 2012, published 2013).

How the values were obtained:
[1] = tested on: yeast cells lacking HMG1 and HMG2 with HMG1 overexpression plasmid (HMG-CoAR); assay: Yeast HMG-CoAR screening assay (yeast cell growth, OD660, with or without mevalonate); type: cell-based, Saccharomyces cerevisiae; conditions: for restoration of growth / reduction of inhibitory effect in the presence of mevalonate (compounds from Fraction 7): 300 μg/ml (7E1: 150 μg/ml), with mevalonate; for growth inhibition in the yeast cells: without mevalonate
Text: The present invention provides a screening method to identify potential HMG-CoAR inhibitors. The present method comprises providing a yeast strain which lacks HMG1 and HMG2 genes but containing a HMG1 overexpression plasmid, contacting said yeast strain with a test material. If the test material can inhibit the HMG1 activity or expression, the yeast cells will die. In order to validate the death of yeast cells is due to inhibition of HMG1 by the test material, the present invention also includes adding mevalonate compound, which is a downstream product of the HMG-CoAR. HMG-CoAR inhibitory activity of the test material is confirmed if the cell viability of the yeast strain is unaffected by the test material in the presence of mevalonate.
Saccharomyces cerevisiae (MATa ade2-101 his3-200 hmg1::LYS2 hmg2:his3 lys2-80 met TRP1 ura3-52 with overexpression of yeast HMG1 containing plasmid) were used in the screening assay. Cells were grown at 30° C. in YEPD, consisting of 10 g/L yeast extract, 20 g/L Bacto-peptone and 20 g/L dextrose.
Yeast cells were grown overnight in YEPD medium to ^˜7.0 OD660 at 30° C. Cells were then subculture to a fresh YEPD medium with starting ^˜0.1 starting OD660 and grew for another 8 hours to ^˜1.2 OD660. The assay was performed in a 96-well plate. 2.7×10^4 cells, tested drugs/chemicals and/or mevalonate were added to each well in a final volume of 100 μl. All experiments were performed in triplicate. Cells were then grown for 16 hours at 30° C. and the inhibitory effect of HMG-CoAR determined by measuring the cell density OD660 of each well by a micro-plate reader. Statin was used as a positive control and mevalonate supplement was used to validate the inhibitory effect of tested compounds on HMG-CoAR.

HMG-CoAR = molecular target: T1, HMG-CoAR (Homo sapiens, UniProt P04035); assay: In vitro HMG-CoAR activity assay (commercial kit, Sigma; NADPH oxidation at 340 nm); type: biochemical; conditions: 60 μg/ml
T1 construct: the oxidation of NADPH by the catalytic subunit of HMGR in the presence of the substrate of HMG-CoA; purchased Sigma, USA
T1 sequence (P04035 426-888 limits assumed): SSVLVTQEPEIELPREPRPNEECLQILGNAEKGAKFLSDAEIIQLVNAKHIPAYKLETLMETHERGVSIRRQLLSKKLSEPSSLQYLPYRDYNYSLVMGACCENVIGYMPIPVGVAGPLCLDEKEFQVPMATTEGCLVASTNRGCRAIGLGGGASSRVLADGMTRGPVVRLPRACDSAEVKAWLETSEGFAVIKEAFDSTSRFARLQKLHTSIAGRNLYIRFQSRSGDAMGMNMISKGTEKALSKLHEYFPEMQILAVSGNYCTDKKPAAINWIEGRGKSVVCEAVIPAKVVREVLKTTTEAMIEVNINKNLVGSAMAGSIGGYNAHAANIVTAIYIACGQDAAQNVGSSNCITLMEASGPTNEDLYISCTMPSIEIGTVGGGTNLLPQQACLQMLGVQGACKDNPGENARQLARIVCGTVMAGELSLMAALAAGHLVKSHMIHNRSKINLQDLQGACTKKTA
Description: Commercial HMG-CoAR activity assay kit (Sigma, USA) is used in this experiment. The HMG-CoAR activity assay is based on the spectrophotometric measurement of the decrease in absorbance at 340 nm, which represents the oxidation of NADPH by the catalytic subunit of HMGR in the presence of the substrate of HMG-CoA. Pravastatin (Positive control), 7E1 or 7E2 are tested in this assay.
The HMG-CoAR activity was determined by the commercially available in vitro assay kit (Sigma, USA). The protocol of the assay was performed as described in the manufacture's manual. The HMG-CoAR activity assay is based on the spectrophotometric measurement of the decrease in absorbance at 340 nm, which represents the oxidation of NADPH by the catalytic subunit of HMGR in the presence of the substrate of HMG-CoA.
To validate the inhibitory effect of HMG-CoAR activity of compounds 7E1 and 7E2, in vitro HMG-CoAR activity is performed. Commercial HMG-CoAR activity assay kit (Sigma, USA) is used. The HMG-CoAR activity assay is based on the spectrophotometric measurement of the decrease in absorbance at 340 nm, which represents the oxidation of NADPH by the catalytic subunit of HMGR in the presence of the substrate of HMG-CoA. HMG-CoAR inhibitory effect of Pravastatin (Positive control), 7E1 or 7E2 are tested.

| Compound | restoration of growth / reduction of inhibitory effect in the presence of mevalonate (compounds from Fraction 7) [1] | growth inhibition in the yeast cells ([1]; 300 μg/ml) [%] | inhibition of HMG-CoAR activity in vitro (HMG-CoAR) | growth inhibition in the yeast cells ([1]; 150 μg/ml) [%] |
| --- | --- | --- | --- | --- |
| CC(C)=CCC[C@](C)(O[C@@H]1O[C@H](CO[C@@H]2OC[C@@H](O)[C@H](O)[C@H]2O)[C@@H](O)[C@H](O)[C@H]1O)[C@H]1CC[C@]2(C)[C@@H]1[C@H](O)C[C@@H]1[C@@]3(C)CC[C@H](O[C@@H]4O[C@H](CO)[C@@H](O)[C@H](O)[C@H]4O)C(C)(C)[C@@H]3CC[C@]12C [Compound 7E2, gypenoside IX] | significant reduction of inhibitory effects | 80 | can inhibit the HMG-CoAR activity |  |
| gypenoside XLV-Ed [Compound 7E1] | significant reduction of inhibitory effects |  | can inhibit the HMG-CoAR activity | 65 |
